Where two headings read alike, the source gives them in different places. Where a SMILES comes first, the peptide text is derived from it. Bridges are numbered along the chain shown (N, C = ends). [ ]: non-standard residue; d: D form. The star is where a group is joined. GdDOTA = Gd(III) DOTA conjugate, O=C([O-])CN1CCN(CC(=O)[O-])CCN(CC(=O)*)CCN(CC(=O)[O-])CC1.[Gd+3]; DOTA(In) = O=C1CN2CCN3CCN(CC(=O)*)CCN(CC2)CC(=O)[O][In]([O]1)[O]C(=O)C3; DOTA = O=C(O)CN1CCN(CC(=O)O)CCN(CC(=O)*)CCN(CC(=O)O)CC1; Phe(4-SO3H) = N[C@@H](Cc1ccc(S(=O)(=O)O)cc1)C(=O)O; Hyp = O=C(O)[C@@H]1C[C@@H](O)CN1; hArg = N=C(N)NCCCC[C@H](N)C(=O)O; Pentanoyl(4-Me) = CC(C)CCC(=O)*; Cit = NC(=O)NCCC[C@H](N)C(=O)O; αMeL = CC(C)C[C@](C)(N)C(=O)O; Aic = NC1(C(=O)O)Cc2ccccc2C1; Ac6c = NC1(C(=O)O)CCCCC1; Nle = CCCC[C@H](N)C(=O)O; dNMeA = CN[C@H](C)C(=O)O; Nva = CCC[C@H](N)C(=O)O; Hexanoyl = CCCCCC(=O)*; Pentanoyl = CCCCC(=O)*; Ava = NCCCCC(=O)O
Key:
human uPAR (uPAR-Fc) = target: T1, human uPAR (uPAR-Fc) (Homo sapiens, UniProt Q03405); experiment: Surface plasmon resonance (SPR) assay, single cycle kinetics; type: binding; details: pKD category for uPAR SPR activity assay, uPAR-Fc on Protein A-Chip, 25°C; for Kd: read-out: pKD CAT (converted)
T1 construct: comprising amino acids Leu23-Arg303 according to UniProt entry Q03405.1; purchased R&D Systems 10378-UK-100
Outline: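 uPAR-Fc (Leu23-Arg303 extracellular domains, human IgG1 Fc) captured on Protein A chip to ~2000 RU; single-cycle kinetics at 25°C in HEPES running buffer pH 7.4 with 0.1% DMSO. KD from double-referenced sensorgrams fitted to 1:1 Langmuir model, reported as pKD.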

[1] = target: T2, uPAR-expressing HEC-265 human endometrial adenocarcinoma cells (Homo sapiens, UniProt Q03405); experiment: Competitive FACS binding assay; details: pIC50 category of FACS binding
T2 construct: Cell surface uPAR-expressing HEC-265 human endometrial adenocarcinoma cells; host or cells: HEC-265
Outline: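 Competitive displacement of a 10 nM biotinylated peptide from HEC-265 cells (1 h, 4 °C, PBS/1% BSA), detected via APC-streptavidin by flow cytometry. pIC50 from four-parameter logistic fit of median fluorescence versus concentration.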

T1 sequence (Q03405 23-303): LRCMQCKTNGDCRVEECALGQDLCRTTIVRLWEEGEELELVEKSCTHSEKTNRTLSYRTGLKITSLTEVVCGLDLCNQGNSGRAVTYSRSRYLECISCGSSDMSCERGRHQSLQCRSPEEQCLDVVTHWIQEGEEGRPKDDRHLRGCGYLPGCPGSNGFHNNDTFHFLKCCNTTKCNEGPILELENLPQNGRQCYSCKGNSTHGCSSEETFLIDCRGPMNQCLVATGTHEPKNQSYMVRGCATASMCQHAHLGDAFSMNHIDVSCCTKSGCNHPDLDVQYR
T2 sequence (Q03405 23-335): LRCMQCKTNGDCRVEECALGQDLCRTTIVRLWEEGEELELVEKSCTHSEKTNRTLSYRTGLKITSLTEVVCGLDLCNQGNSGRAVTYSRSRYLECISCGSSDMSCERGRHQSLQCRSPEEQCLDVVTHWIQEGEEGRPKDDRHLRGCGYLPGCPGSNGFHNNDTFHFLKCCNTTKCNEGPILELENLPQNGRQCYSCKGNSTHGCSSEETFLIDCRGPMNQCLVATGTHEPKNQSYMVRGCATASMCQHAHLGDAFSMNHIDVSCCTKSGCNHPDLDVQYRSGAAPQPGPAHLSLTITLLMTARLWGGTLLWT

CCCCC(=O)N[C@H]1CSSC[C@@H](C(N)=O)NC(=O)[C@H](CCC)NC(=O)[C@H]([C@@H](C)CC)NC(=O)[C@@H]2C[C@@H](O)CN2C(=O)[C@@H]2CCCN2C(=O)[C@H](Cc2ccccc2)NC(=O)[C@H](Cc2ccc(S(=O)(=O)O)cc2)NC(=O)[C@H](CCCCNC(=O)CN2CCN(CC(=O)O)CCN(CC(=O)O)CCN(CC(=O)O)CC2)NC(=O)[C@H](CCCNC(N)=O)NC1=O [UPAR-209, Pent-[Cys-Cit-Lys(DOTA)-Fso-Phe-Pro-Hyp-Ile-Nva-Cys]-NH2] (Pentanoyl-C[Cit]K(DOTA)[Phe(4-SO3H)]FP[Hyp]I[Nva]C-NH2; disulfide 1-10)
Kd (human uPAR (uPAR-Fc)): 1.58 to 10 nM
IC50 [1]: ≤ 10 nM

CCCCC(=O)N[C@H]1CSSC[C@@H](C(N)=O)NC(=O)[C@](C)(CC(C)C)NC(=O)[C@H]([C@@H](C)CC)NC(=O)[C@@H]2C[C@@H](O)CN2C(=O)[C@@H]2CCCN2C(=O)[C@H](Cc2ccccc2)NC(=O)[C@H](Cc2ccc(O)cc2)NC(=O)[C@H](CCC(N)=O)NC(=O)[C@H](CCCNC(=N)N)NC1=O [UPAR-156, Pent-[Cys-Arg-Gln-Tyr-Phe-Pro-Hyp-Ile-Aml-Cys]-NH2] (Pentanoyl-CRQYFP[Hyp]I[αMeL]C-NH2; disulfide 1-10)
Kd (human uPAR (uPAR-Fc)): 1.58 to 10 nM
IC50 [1]: 12.6 to 31.6 nM

CCCCC(=O)N[C@H]1CSSC[C@@H](C(N)=O)NC(=O)[C@H](CCC)NC(=O)[C@H](CCCCN)NC(=O)[C@@H]2C[C@@H](O)CN2C(=O)[C@@H]2CCCN2C(=O)[C@H](Cc2ccccc2)NC(=O)[C@H](Cc2ccc(O)cc2)NC(=O)[C@H](CCC(N)=O)NC(=O)[C@H](CCCNC(=N)N)NC1=O [UPAR-385, Pent-[Cys-Arg-Gln-Tyr-Phe-Pro-Hyp-Lys-Nva-Cys]-NH2] (Pentanoyl-CRQYFP[Hyp]K[Nva]C-NH2; disulfide 1-10)
Kd (human uPAR (uPAR-Fc); single cycle kinetics): 10 to 100 nM
IC50 [1]: ≥ 126 nM

CCCCC(=O)N[C@H]1CSSC[C@@H](C(N)=O)NC(=O)[C@H](CCC)NC(=O)C2(CCCCC2)NC(=O)[C@@H]2C[C@@H](O)CN2C(=O)[C@@H]2CCCN2C(=O)[C@H](Cc2ccccc2)NC(=O)[C@H](Cc2ccc(O)cc2)NC(=O)[C@H](CCC(N)=O)NC(=O)[C@H](CCCNC(=N)N)NC1=O [UPAR-264, Pent-[Cys-Arg-Gln-Tyr-Phe-Pro-Hyp-Egz-Nva-Cys]-NH2] (Pentanoyl-CRQYFP[Hyp][Ac6c][Nva]C-NH2; disulfide 1-10)
Kd (human uPAR (uPAR-Fc)): < 1.58 nM
IC50 [1]: ≤ 10 nM

CCCCCC(=O)N[C@H](C(=O)N[C@@H](CC(C)C)C(=O)N[C@H]1CSSC[C@@H](C(N)=O)NC(=O)[C@H](CC(C)C)NC(=O)[C@H]([C@@H](C)CC)NC(=O)[C@H](C)NC(=O)[C@@H]2CCCN2C(=O)[C@H](Cc2ccccc2)NC(=O)[C@H](Cc2ccc(O)cc2)NC(=O)[C@H](Cc2ccc(O)cc2)NC(=O)[C@H](CCC(=O)O)NC1=O)[C@@H](C)O [UPAR-143, Hex-Thr-Leu-[Cys-Glu-Tyr-Tyr-Phe-Pro-Ala-Ile-Leu-Cys]-NH2] (Hexanoyl-TLCEYYFPAILC-NH2; disulfide 3-12)
Kd (human uPAR (uPAR-Fc)): < 1.58 nM
IC50 [1]: ≤ 10 nM

CCCC[C@@H]1NC(=O)[C@H](CCCNC(=N)N)NC(=O)[C@@H](NC(=O)[C@H](CC(C)C)NC(=O)[C@H](CC(=O)O)NC(C)=O)CSSC[C@@H](C(N)=O)NC(=O)[C@H](CC(C)C)NC(=O)[C@@H](CC(C)C)NC(=O)[C@H](C)NC(=O)[C@@H]2CCCN2C(=O)[C@H](Cc2ccccc2)NC(=O)[C@H](Cc2ccc(O)cc2)NC1=O [UPAR-420, Ac-Asp-Leu-[Cys-Arg-Nle-Tyr-Phe-Pro-Ala-leu-Leu-Cys]-NH2] (Ac-DLCR[Nle]YFPA[dL]LC-NH2; disulfide 3-12)
Kd (human uPAR (uPAR-Fc); single cycle kinetics): 10 to 100 nM
IC50 [1]: 39.8 to 100 nM

CCCCC(=O)N[C@H]1CSSC[C@@H](C(N)=O)NC(=O)[C@H](CCC)NC(=O)[C@H]([C@@H](C)CC)NC(=O)[C@@H](C)N(C)C(=O)[C@@H]2CCCN2C(=O)[C@H](Cc2ccccc2)NC(=O)[C@H](Cc2ccc(O)cc2)NC(=O)[C@H](CCCCNC(=O)CN2CCN(CC(=O)O)CCN(CC(=O)O)CCN(CC(=O)O)CC2)NC(=O)[C@H](CCCNC(N)=O)NC1=O [UPAR-384, Pent-[Cys-Cit-Lys(DOTA)-Tyr-Phe-Pro-nma-Ile-Nva-Cys]-NH2] (Pentanoyl-C[Cit]K(DOTA)YFP[dNMeA]I[Nva]C-NH2; disulfide 1-10)
Kd (human uPAR (uPAR-Fc); single cycle kinetics): < 1.58 nM
IC50 [1]: ≤ 10 nM

Pent-[Cys-Cit-Lys(InDOTA)-Tyr-Phe-Pro-Hyp-Ile-Nva-Cys]-NH2 (Pentanoyl-C[Cit]K(DOTA(In))YFP[Hyp]I[Nva]C-NH2; disulfide 1-10; not fully specified; also: In(III) complexed by DOTA) [UPAR-182]
pKD CAT (human uPAR (uPAR-Fc)): A (pKD values ≥ 8.8)
pIC50 CAT [1]: A (pIC50 values ≥8.0)

CC[C@H](C)[C@@H]1NC(=O)[C@@H](C)NC(=O)[C@@H]2CCCN2C(=O)[C@H](Cc2ccccc2)NC(=O)[C@H](Cc2ccc(O)cc2)NC(=O)[C@H](CCC(N)=O)NC(=O)[C@H](CCCNC(N)=O)NC(=O)[C@@H](NC(=O)CCC(C)C)CSSC[C@@H](C(=O)O)NC(=O)[C@H](CC(C)C)NC1=O [UPAR-131, iHex-[Cys-Cit-Gln-Tyr-Phe-Pro-ala-Ile-Leu-Cys]-OH] ({Pentanoyl(4-Me)}-C[Cit]QYFP[dA]ILC-OH; disulfide 1-10)
Kd (human uPAR (uPAR-Fc)): > 100 nM
IC50 [1]: ≥ 126 nM

Pent-[Cys-Cit-Lys(LuDOTA)-Tyr-Egm-Pro-Hyp-Ile-Nva-Cys]-NH2 [UPAR-254]
pKD CAT (human uPAR (uPAR-Fc)): A (pKD values ≥ 8.8)
pIC50 CAT [1]: A (pIC50 values ≥8.0)

CCCC[C@@H]1NC(=O)[C@H](CCCNC(=N)N)NC(=O)[C@@H](NC(=O)[C@H](CC(C)C)NC(=O)[C@H](CC(=O)O)NC(C)=O)CSSC[C@@H](C(N)=O)NC(=O)[C@H](CC(C)C)NC(=O)[C@H]([C@@H](C)CC)NC(=O)[C@@H]2CCCN2C(=O)[C@@H]2CCCN2C(=O)[C@H](Cc2ccccc2)NC(=O)[C@H](Cc2ccc(O)cc2)NC1=O [UPAR-431, Ac-Asp-Leu-[Cys-Arg-Nle-Tyr-Phe-Pro-Pro-Ile-Leu-Cys]-NH2] (Ac-DLCR[Nle]YFPPILC-NH2; disulfide 3-12)
Kd (human uPAR (uPAR-Fc); single cycle kinetics): < 1.58 nM
IC50 [1]: ≤ 10 nM

Pent-[Cys-Har-Lys(GdDOTA)-Tyr-Phe-Pro-Hyp-Ile-Nva-Cys]-NH2 (Pentanoyl-C[hArg]K(GdDOTA)YFP[Hyp]I[Nva]C-NH2; disulfide 1-10; not fully specified; also: Gd(III) complexed by DOTA) [UPAR-376]
pKD CAT (human uPAR (uPAR-Fc); single cycle kinetics): A (pKD values ≥ 8.8)
pIC50 CAT [1]: A (pIC50 values ≥8.0)

CC[C@H](C)[C@@H]1NC(=O)[C@@H]2C[C@@H](O)CN2C(=O)[C@@H]2CCCN2C(=O)[C@H](Cc2ccccc2)NC(=O)[C@H](Cc2ccc(O)cc2)NC(=O)[C@H](CC(=O)O)NC(=O)[C@H](CCCNC(N)=O)NC(=O)[C@@H](NC(=O)CCC(C)C)CSSC[C@@H](C(N)=O)NC(=O)[C@H](CC(C)C)NC1=O [UPAR-410, iHex-[Cys-Cit-Asp-Tyr-Phe-Pro-Hyp-Ile-Leu-Cys]-NHz] ({Pentanoyl(4-Me)}-C[Cit]DYFP[Hyp]ILC-NH2; disulfide 1-10)
Kd (human uPAR (uPAR-Fc); single cycle kinetics): < 1.58 nM
IC50 [1]: ≤ 10 nM

CCCCC(=O)N[C@H]1CSSC[C@@H](C(N)=O)NC(=O)[C@H](CCC)NC(=O)[C@H]([C@@H](C)CC)NC(=O)[C@@H]2C[C@@H](O)CN2C(=O)[C@@H]2CCCN2C(=O)C2(Cc3ccccc3C2)NC(=O)[C@H](Cc2ccc(O)cc2)NC(=O)[C@H](CCCCNC(=O)CN2CCN(CC(=O)O)CCN(CC(=O)O)CCN(CC(=O)O)CC2)NC(=O)[C@H](CCCNC(N)=O)NC1=O [UPAR-417, Pent-[Cys-Cit-Lys(DOTA)-Tyr-Aic-Pro-Hyp-Ile-Nva-Cys]-NH2] (Pentanoyl-C[Cit]K(DOTA)Y[Aic]P[Hyp]I[Nva]C-NH2; disulfide 1-10)
Kd (human uPAR (uPAR-Fc); single cycle kinetics): > 100 nM
IC50 [1]: ≥ 126 nM

CCCCCC(=O)N[C@@H](CCCCNC(=O)CN1CCN(CC(=O)O)CCN(CC(=O)O)CCN(CC(=O)O)CC1)C(=O)N[C@@H](CC(C)C)C(=O)N[C@H]1CSSC[C@@H](C(N)=O)NC(=O)[C@H](CC(C)C)NC(=O)[C@H]([C@@H](C)CC)NC(=O)[C@H](C)NC(=O)[C@@H]2CCCN2C(=O)[C@H](Cc2ccccc2)NC(=O)[C@H](Cc2ccc(O)cc2)NC(=O)[C@H](CCSC)NC(=O)[C@H](CCCNC(=N)N)NC1=O [UPAR-140, Hex-Lys(DOTA)-Leu-[Cys-Arg-Met-Tyr-Phe-Pro-Ala-Ile-Leu-Cys]-NH2] (Hexanoyl-K(DOTA)LCRMYFPAILC-NH2; disulfide 3-12)
Kd (human uPAR (uPAR-Fc)): < 1.58 nM
IC50 [1]: ≤ 10 nM

CC[C@H](C)[C@@H]1NC(=O)[C@@H](C)NC(=O)[C@@H]2CCCN2C(=O)[C@H](Cc2ccccc2)NC(=O)[C@H](Cc2ccc(O)cc2)NC(=O)[C@H](CCC(N)=O)NC(=O)[C@H](CCCNC(N)=O)NC(=O)[C@@H](NC(=O)CCCCN)CSSC[C@@H](C(N)=O)NC(=O)[C@H](CC(C)C)NC1=O [UPAR-394, H-Ava-[Cys-Cit-Gln-Tyr-Phe-Pro-ala-Ile-Leu-Cys]-NH2] (H-[Ava]C[Cit]QYFP[dA]ILC-NH2; disulfide 2-11)
Kd (human uPAR (uPAR-Fc); single cycle kinetics): > 100 nM
IC50 [1]: ≥ 126 nM

Source: patent publication EP4610269A1, “UROKINASE PLASMINOGEN ACTIVATOR SURFACE RECEPTOR (UPAR) LIGANDS FOR DIAGNOSTIC OR THERAPEUTIC USE” (3B Pharmaceuticals GmbH, priority 2024, dated 2025)
